Results from PMC4414353, “Synthesis and evaluation of novel amide amino-β-lactam derivatives as cholesterol absorption inhibitors” (Bioorganic & medicinal chemistry, 2015).
Where “and” joins values, the source holds several entries; their conditions need not be identical. Identical values can stand only once. Like-named read-outs stand apart in the source and are kept apart here.

Key:
[1] = MTT cell proliferation assay (cytotoxicity), MDCKIIwt; type: cell-based; conditions: dog, MDCKII wild-type cells, 72 h incubation, read-out: LC50, MDCKII
Method: (§1) Cytotoxicity of ezetimibe 1 and of newly synthesized amides 5a–f was determined using MTT cell proliferation assay in Madine-Darby Canine Kidney II wild-type (MDCKIIwt), MDCKII cells stably expressing hNPC1L1 (hNPC1L1/MDCKII) and HepG2 cell lines (Table 1). hNPC1L1/MDCKII were used as a pharmacologically validated model for investigating NPC1L1-mediated cholesterol uptake.[21] LC50 values were determined and values higher than 100 μM were considered non-toxic.
(§2) Madin-Darby Canine Kidney II wild type (MDCKIIwt), MDCKII cells stably expressing human NPC1L1 (hNPC1L1/MDCKII), and HepG2 cells were cultured in Dulbecco’s Modified Eagle Medium (DMEM) (Gibco,® Life Technologies, Carlsbad, USA) containing 10% fetal calf serum (FCS) (Sigma–Aldrich, Munich, Germany), 1% penicillin/streptomycin in a humidified 5% CO2 incubator at 37 °C. MDCKIIwt cells were stably transfected with human NPC1L1 using Lipofectamine LTX (Life Technologies, Carlsbad, USA) according to the manufacturer’s protocol. After 48 h, selection with 1000 μg/mL G418 (Sigma–Aldrich, Munich, Germany) was started. Selection lasted for two weeks, after which transfected cells were maintained in the medium containing 500 μg/mL G418.
(§3) MDCKIIwt, hNPC1L1/MDCKII, and HepG2 cells were plated in 96-well microtiter plates at 2 × 10^4 cells/mL on day 0. On the next day, tested compounds were added to obtain five 10-fold consecutive dilutions in range from 10^−8 to 10^−4 mol/L, and incubated for further 72 h. Cytotoxicity of the compounds was determined by the MTT cell proliferation assay (Sigma–Aldrich, Munich, Germany).[22] The results are expressed as LC50 values. The absorbance (A) was measured on a microplate reader at 570 nm. Cytotoxicity of each compound was tested in quadruplicate in three independent experiments. Furthermore, toxicity of the compounds in combination with micelles was tested using the same method. MDCKIIwt and hNPC1L1/MDCKII were plated in 96-well microtiter plates (150 μL medium/well) at 2 × 10^5 cells/mL 24 h before the experiment. Micelles were prepared according to the modified method described by Field et al.[23] In brief, micellar components were mixed with DMEM supplemented with 10% FCS to obtain final concentrations of 0.25 mM oleic acid, 50 μM cholesterol, 10 μM compactin, 50 μM mevalonate, 5 mM Na-taurocholate (Sigma–Aldrich, Munich, Germany) and sonicated. Tested compounds (25, 50, 100, 150, 200 μM) were added to the prepared medium, vortexed and applied to the cells for 1 h. Cytotoxicity was determined using the MTT assay.

[2] = in vitro; conditions: dog
Method: as §1, §2, §3

[3] = MTT cell proliferation assay (cytotoxicity), HepG2; type: cell-based; conditions: human, HepG2 cells, 72 h incubation, read-out: LC50, HepG2
Method: The results are expressed as LC50 values. […] Cytotoxicity was determined using the MTT assay.

[4] = tested on: C57BL/6 mice; test: In vivo acute cholesterol absorption; conditions: 20 mg/kg/day for 2 days, oral gavage, reduction in [3H]cholesterol radioactivity relative to vehicle, mean ± SEM
Method: Finally, we tested the in vivo inhibition of cholesterol absorption of ezetimibe 1 and 4-F-phenyl representatives (5b,d,f) from each group of ezetimibe analogs. For in vivo testing, we used the compounds with lower IC50 values and higher inhibition of cholesterol uptake as determined in vitro. For that purpose, mice were treated with 20 mg/kg/day of each compound for two days, gavaged with [^3H]cholesterol and radioactivity was measured in the liver and three equal parts of the small intestine (duodenum, jejunum, ileum). The results are expressed as percent reduction in radioactivity relative to vehicle (Table 2). […] In the three parts of the small intestine (duodenum, jejunum, ileum), ezetimibe 1 lowered [^3H]cholesterol by 60%, 52%, and 44%, respectively.
26 weeks old male C57BL/6 mice (3–4 per group) were maintained in a temperature-controlled environment under a 12 h light/12 h dark cycle with free access to chow diet (Altromin Spezialfutter GmbH, Lage, Germany) and water. For two days, mice were treated with ezetimibe, tested compounds (20 mg/kg/day) or vehicle. For the treatment, compounds were dissolved in corn oil and administered to mice (100 μL) after 4 h fasting by oral gavage. On day 2, 90 min after compound administration, mice were gavaged with corn oil (200 μL) containing [^3H]cholesterol (2 μCi) ([1,2-3H(N)] cholesterol, 1 mCi/mL, ARC Inc., St. Louis, USA). Liver and small intestines were collected 4 h post-gavage and cholesterol uptake and absorption were determined as previously described.[24] Animal experiments were performed according to the standards set by the Austrian Federal Ministry of Science, Research, and Economy, Vienna, Austria.

[5] = tested on: hNPC1L1/MDCKII cells; set-up: method as in PMID 25305716; conditions: determined previously, cited from earlier work
[6] = tested on: hNPC1L1/MDCKII cells; test: In vitro [3H]cholesterol uptake; type: cell-based, Canine; conditions: for IC50: Canis lupus familiaris, MDCK-II, read-out: IC50, inhibition of cholesterol uptake; for maximum inhibition of cholesterol uptake: compared to untreated cells
Method: Ezetimibe analogs 5a–f were tested for inhibition of cholesterol uptake in hNPC1L1/MDCKII cells (Fig. 3).
The results are expressed as percentage of inhibition compared to untreated cells and represent mean ± SEM of three independent experiments. *p <0.05, **p <0.01, ***p <0.001 determined by one-way ANOVA followed by Dunnett’s test.
In vitro cholesterol uptake was determined as described by Dražić et al.[19] In brief, hNPC1L1/MDCKII cells were plated in 24-well plates at 5 × 10^5 cells/mL medium (500 μL medium/well) in DMEM supplemented with 5% LPDS 24 h before the treatment. Cells were washed once with PBS and medium containing micelles, [^3H]cholesterol (0.18 μCi/mL medium) ([1,2-3H(N)] cholesterol, 1 mCi/mL, ARC Inc., St. Louis, USA) and tested compounds in concentrations of 0–200 μM was added. After 1 h, the medium was removed, cells were washed three times with ice-cold 0.2% free fatty acid-free BSA and lysed. Radioactivity in the lysate (100 μL) was measured by liquid scintillation counting. Protein content in lysates was determined with the DC Protein Assay (Bio-Rad, Hercules, USA). The results were expressed as percentage of inhibition compared to untreated cells in CPM/mg protein. Activity of each compound was tested in duplicate in three independent experiments.

[7] = MDCKII cells stably expressing human NPC1L1 (hNPC1L1/MDCKII)
[8] = listed as ezetimibe 1, 20 mg/kg/day
[9] = hNPC1L1/MDCKII cells, 1 h, micelles with [3H]cholesterol

| Compound | CC50 at 72 h [1] [µM] | CC50 at 72 h [2, 7] [µM] | CC50 at 72 h [3] [µM] | In vivo inhibition of cholesterol absorption, Duodenum ([4]; 20 mg/kg/day) | In vivo inhibition of cholesterol absorption, Ileum ([4]; 20 mg/kg/day) | In vivo inhibition of cholesterol absorption, Jejunum ([4]; 20 mg/kg/day) | In vivo inhibition of cholesterol absorption, Liver ([4]; 20 mg/kg/day) | In vivo inhibition of cholesterol absorption, Duodenum [4, 8] [%] | In vivo inhibition of cholesterol absorption, Ileum [4, 8] [%] | In vivo inhibition of cholesterol absorption, Jejunum [4, 8] [%] | In vivo inhibition of cholesterol absorption, Liver [4, 8] [%] | IC50 ([5]; read-out: IC50, inhibition of cholesterol uptake) [µM] | maximum inhibition of cholesterol uptake [5] [%] | IC50 [6, 9] [µM] | concentration at which maximum inhibition of cholesterol uptake was reached ([6]; hNPC1L1/MDCKII cells) [µM] | maximum inhibition of cholesterol uptake ([6]; hNPC1L1/MDCKII cells) | CC50 at 72 h [2] [µM] | IC50 [6] [µM] |
| --- | --- | --- | --- | --- | --- | --- | --- | --- | --- | --- | --- | --- | --- | --- | --- | --- | --- | --- |
| O=C1[C@H](CC[C@H](O)c2ccc(F)cc2)[C@@H](c2ccc(O)cc2)N1c1ccc(F)cc1 [Compound 1, Ezetimibe, reference compound] | > 100 | 62.3 | 69.7 | 60 ± 6 % | 44 ± 11% | 52 ± 3 % | 53 ± 2 % | 60 | 44 | 52 | 53 | 24 | 40 |  |  |  |  |  |
| O=C(/C=C/c1ccccc1)N[C@H]1C(=O)N(c2ccc(F)cc2)[C@@H]1c1ccc(O)cc1 [Compound 5a, (E)-N-((2R,3R)-1-(4-Fluorophenyl)-2-(4-hydroxyphenyl)-4-oxoazetidin-3-yl)cinnamamide] | 66.5 | 65.1 | 63.3 |  |  |  |  |  |  |  |  |  |  | 20 | 60 | ~ 45% |  |  |
| O=C(/C=C/c1ccc(F)cc1)N[C@H]1C(=O)N(c2ccc(F)cc2)[C@@H]1c1ccc(O)cc1 [Compound 5b, (E)-3-(4-Fluorophenyl)-N-((2R,3R)-1-(4-fluorophenyl)-2-(4-hydroxyphenyl)-4-oxoazetidin-3-yl)acrylamide] | 64 |  | 57.5 | 27% and 27 ± 10% | 37% and 37 ± 15% | 35% and 35 ± 8% | 49% and 49 ± 5 % |  |  |  |  |  |  |  | 60 | ~ 45% | 63.3 | 18 |
| O=C(N[C@H]1C(=O)N(c2ccc(F)cc2)[C@@H]1c1ccc(O)cc1)c1ccccc1 [Compound 5e, N-((2R,3R)-1-(4-Fluorophenyl)-2-(4-hydroxyphenyl)-4-oxoazetidin-3-yl)benzamide] | 91.2 | 68.3 | 67.6 |  |  |  |  |  |  |  |  |  |  | 70 |  |  |  |  |
| O=C(Cc1ccccc1)N[C@H]1C(=O)N(c2ccc(F)cc2)[C@@H]1c1ccc(O)cc1 [Compound 5c, N-((2R,3R)-1-(4-Fluorophenyl)-2-(4-hydroxyphenyl)-4-oxoazetidin-3-yl)-2-phenylacetamide] | > 100 | > 100 | > 100 |  |  |  |  |  |  |  |  |  |  | 88 |  | ~ 40% |  |  |
| O=C(N[C@H]1C(=O)N(c2ccc(F)cc2)[C@@H]1c1ccc(O)cc1)c1ccc(F)cc1 [Compound 5f, 4-Fluoro-N-((2R,3R)-1-(4-fluorophenyl)-2-(4-hydroxyphenyl)-4-oxoazetidin-3-yl)benzamide] | 78.6 | 64.7 | 71.9 | 42% and 42 ± 2% | 28% and 28 ± 7% | 32% and 32 ± 6% | 37% and 37 ± 8 % |  |  |  |  |  |  | 54 |  |  |  |  |
| O=C(Cc1ccc(F)cc1)N[C@H]1C(=O)N(c2ccc(F)cc2)[C@@H]1c1ccc(O)cc1 [Compound 5d, 2-(4-Fluorophenyl)-N-((2R,3R)-1-(4-fluorophenyl)-2-(4-hydroxyphenyl)-4-oxoazetidin-3-yl)acetamide] | > 100 | > 100 | > 100 | 15% and 15 ± 12% | 24% and 24 ± 13% | 14% and 14 ± 20% | 39% and 39 ± 11 % |  |  |  |  |  |  | 46 |  | ~ 40% |  |  |
